These results are taken from US20200308192A1, “NOVEL THIAZOLO[5,4-D]PYRIMIDINE DERIVATIVES AS INVERSE AGONISTS OF A2A ADENOSINE RECEPTORS” (Universita degli Studi di Ferrara, priority 2016, published 2020).

Assay [1] has as its system Female CD1 mice. The experiment in a line: Writhing test (acetic acid-induced abdominal constrictions). The class given is in vivo. How it is done:
(§1) Female CD1 mice (22-24 g) were obtained from Charles River (Milano, Italia). The animals were kept under standard environmental temperature conditions (22±2° C.) and under moisture-controlled conditions with 12 hours light/dark cycle and food and water ad libitum. The animals were acclimated to the laboratory settings for at least 1 hour before testing and were used only once throughout the experiments. All the procedures used in the present study were carried out in accordance with the European Communities Council Directives (86/609/EEC) and the National Laws and Policies (D.L.116/92) after authorization from the Italian Ministry for Health (4/2014-B). In addition, the experimental procedures were in agreement with the current guidelines for the care of laboratory animals and the ethical guidelines for investigations of experimental pain in conscious animals (Couto M. Methods Mol Biol 2011; 770:579-599).
The acetic acid-induced writhing response was performed after intraperitoneal injection of 10 ml/Kg of 0.6% acetic acid solution. The response to the abdominal constrictions induced by acetic acid was evaluated after the intraperitoneal injection of 10 ml/kg of a 0.6% solution of acetic acid. The compounds under evaluation were dissolved in DMSO and then diluted in a saline solution. The carrier consists of saline solution and 5% of DMSO. A writhe is indicated by stretching of the abdomen followed by the extension of the hind limbs. The animals (8 mice per group) were placed singly in a glass cylinder and the number of writhing episodes of abdominal contractions was counted in a 30 minutes period. The compounds were administered intraperitoneally 15 minutes before injection of acetic acid solution.
(§2) The statistical analysis of the data was performed using ANOVA followed by Dunnett's test. […] KH and KL were obtained by using a two sites binding model and Graph PAD Prism (San Diego, Calif., USA). The values of IC50 obtained in the cAMP assays were calculated by non-linear regression analysis using the equation for a sigmoid concentration-response curve. All data are expressed as the mean±SEM of four independent experiments each performed in duplicate for in vitro assays and n=8-10 mice/group for in vivo assays.

In assay [2] the target is T1, human adenosine A2B receptor (Homo sapiens, UniProt P29275).
T1 sequence (P29275 1-332): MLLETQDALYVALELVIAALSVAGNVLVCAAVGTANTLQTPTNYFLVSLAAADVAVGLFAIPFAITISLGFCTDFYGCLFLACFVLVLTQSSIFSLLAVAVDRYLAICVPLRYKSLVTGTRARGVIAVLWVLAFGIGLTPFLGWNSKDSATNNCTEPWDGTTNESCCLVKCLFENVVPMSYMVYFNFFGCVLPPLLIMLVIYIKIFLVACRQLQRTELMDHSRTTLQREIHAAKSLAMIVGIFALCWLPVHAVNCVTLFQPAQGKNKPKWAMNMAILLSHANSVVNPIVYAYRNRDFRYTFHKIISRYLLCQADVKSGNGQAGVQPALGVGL
The experiment in a line: cAMP assay, inhibition of NECA-stimulated cAMP levels in hA2B CHO cells. As to conditions: read-out: Receptor hA2B IC50; cAMP stimulated by NECA (100 nM); mean ± SEM.

Assay [3] addresses human adenosine A2A receptor (Homo sapiens, UniProt P29274). The experiment in a line: Competition binding, [3H]-ZM 241385, hA2A CHO membranes.
Assay [4] concerns the target T2, human adenosine A1 receptor (Homo sapiens, UniProt P30542).
T2 sequence (P30542 1-326): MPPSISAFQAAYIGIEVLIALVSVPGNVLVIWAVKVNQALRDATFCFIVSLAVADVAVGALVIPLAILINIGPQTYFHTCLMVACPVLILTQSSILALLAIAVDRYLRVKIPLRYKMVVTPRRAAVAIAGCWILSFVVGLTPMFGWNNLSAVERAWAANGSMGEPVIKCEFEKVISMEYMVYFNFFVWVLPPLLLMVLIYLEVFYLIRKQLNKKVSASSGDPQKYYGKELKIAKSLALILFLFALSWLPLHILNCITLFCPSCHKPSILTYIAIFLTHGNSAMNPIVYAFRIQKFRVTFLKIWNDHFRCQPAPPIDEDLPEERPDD
Nature of the assay: Competition binding, [3H]-DPCPX, hA1 CHO membranes. As to conditions: read-out: Receptor hA1 Ki, mean ± SEM.

In assay [5] the target is T3, human adenosine A3 receptor (Homo sapiens, UniProt P0DMS8).
T3 construct: expressed in transfected cells; host or cells: CHO cells (membrane preparation)
T3 sequence (P0DMS8 1-318): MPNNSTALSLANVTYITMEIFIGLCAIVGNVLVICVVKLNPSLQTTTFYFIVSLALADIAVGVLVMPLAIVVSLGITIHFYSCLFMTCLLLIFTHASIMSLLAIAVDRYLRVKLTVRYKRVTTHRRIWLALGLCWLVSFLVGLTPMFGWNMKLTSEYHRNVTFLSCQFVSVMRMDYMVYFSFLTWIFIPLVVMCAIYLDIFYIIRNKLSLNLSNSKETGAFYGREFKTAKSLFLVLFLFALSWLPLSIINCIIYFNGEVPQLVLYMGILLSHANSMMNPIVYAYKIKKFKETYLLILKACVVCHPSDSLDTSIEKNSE
Nature of the assay: Competition binding, [125I]-ABMECA, hA3 CHO membranes. As to conditions: mean ± SEM.

For assay [6], the system named is Female CD1 mice. The experiment in a line: Warm-water tail immersion test. In kind it is in vivo. As to conditions: intraperitoneal. The method, then:
as §1
The warm-water tail immersion assay was performed using a water thermostated bath at a temperature maintained at 52° C. The compounds under evaluation were dissolved in DMSO and then diluted in saline solution. The carrier consists of saline solution and 5% of DMSO. Before intraperitoneally injecting the compound, the natural time of response of the mice was determined and the distal part of the tail was then immersed in the thermostated bath. The latency in responding to the heat stimulus with a vigorous flexion of the tail was measured by means of a manual stopwatch. A 20 seconds maximum cut-off time was imposed to prevent tissue damage. The latency of the tail withdrawal was then tested 15 minutes after injection of the compound.
as §2

Structures are written as SMILES.

Sequence of human adenosine A2A receptor (P29274 whole entry): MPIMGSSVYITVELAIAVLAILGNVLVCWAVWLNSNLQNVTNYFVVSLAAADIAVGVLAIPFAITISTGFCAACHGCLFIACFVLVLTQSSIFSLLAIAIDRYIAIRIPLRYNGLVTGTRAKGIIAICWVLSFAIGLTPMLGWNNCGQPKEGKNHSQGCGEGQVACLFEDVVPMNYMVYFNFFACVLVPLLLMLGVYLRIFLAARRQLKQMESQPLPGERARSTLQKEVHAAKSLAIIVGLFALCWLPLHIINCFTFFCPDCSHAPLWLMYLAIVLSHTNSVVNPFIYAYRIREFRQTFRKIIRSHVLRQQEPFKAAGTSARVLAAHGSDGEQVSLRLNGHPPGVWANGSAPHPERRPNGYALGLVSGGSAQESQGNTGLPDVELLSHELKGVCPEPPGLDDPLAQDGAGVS

For `COc1ccccc1CNc1nc(N)c2nc(-c3ccco3)sc2n1` [Compound 1, 2-(furan-2-yl)-N^5-(2-methoxybenzyl)[1,3]thiazolo[5,4-d]pyrimidin-5,7-diamine], the ED50 in the assay on Female CD1 mice [1] (Mus musculus, ip, intraperitoneal, 15 minutes before acetic acid) was found to be 0.0328 ± 0.0021 mg/kg; in the assay on Female CD1 mice [6] (Mus musculus, ip, 0.25 h, 52° C., 15 minutes after injection), 0.134 ± 0.011 mg/kg. The “Dose-response curve, Writhing Test” value in the assay on Female CD1 mice [1] (P<0.001, one-way ANOVA) is recorded as “dose-dependent effect”. For the same compound, the “ED50 times lower than ZM 241385, Writhing Test” value in the assay with Female CD1 mice [1] (intraperitoneal) was “approximately 42 times”. In the assay with Female CD1 mice [1] (intraperitoneal), the “ED50 times lower than morphine, Writhing Test” value amounted to 3.75 times. Also, the IC50 in assay [2] worked out at 313 ± 29 nM. The Ki in assay [3] worked out at 6.45 ± 0.57 nM; in assay [4] it was 3.54 ± 0.32 nM; in assay [5] it was 36 ± 3 nM. The “Anti-nociceptive activity, tail immersion test” value with Female CD1 mice [6] was “highest analgesic activity”. The “Minimum effective dose, tail immersion test” value with Female CD1 mice [6] is on record as 0.01 mg/kg.
